Laboratory results reported in patent US12180187B2, “1-phenyl-5-azinylpyrazolyl-3-oxyalkyl acids and their use for controlling unwanted plant growth” (BAYER AKTIENGESELLSCHAFT, priority 2019, dated 2024).

Experiments:
[1] = system: LOLRI; assay: Pre-emergence action against LOLRI, 1280 g/ha; type: in vivo, Lolium rigidum; conditions: visual scoring after about 3 weeks vs untreated controls, 100% = plants have died, 0% = like control plants; for pest or weed control at 1280 g/ha: Lolium rigidum, 504 h
In short: (§1)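 Greenhouse pre-emergence test on sown seeds in sandy loam; soil-surface spray of formulated compound with 0.5% additive at 600 L/ha water. Scored visually, % vs untreated, after about 3 weeks.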

[2] = system: ALOMY; assay: Pre-emergence action against ALOMY, 1280 g/ha; type: in vivo, Alopecurus myosuroides; conditions: visual scoring after about 3 weeks vs untreated controls, 100% = plants have died, 0% = like control plants
In short: as §1

[3] = system: AVEFA; assay: Post-emergence action at 320 g/ha against AVEFA; type: in vivo; conditions: visual rating about 3 weeks after treatment vs untreated controls; for pest or weed control at 320 g/ha: Avena fatua, 504 h
In short: (§2)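 Greenhouse-grown plants sprayed post-emergence at the one-leaf stage, 2 to 3 weeks after sowing, with WP or EC formulations plus 0.5% additive at 600 l/ha water, at 320 g/ha. Activity rated visually after about 3 weeks versus untreated controls (100% = plants died, 0% = like control).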

[4] = system: ABUTH; assay: Post-emergence action at 320 g/ha against ABUTH; type: in vivo, Abutilon theophrasti; conditions: visual rating about 3 weeks after treatment vs untreated controls
In short: as §2

[5] = system: KCHSC; assay: Pre-emergence action against KCHSC, 1280 g/ha; type: in vivo, Bassia scoparia; conditions: scored visually after about 3 weeks vs untreated controls (100% = plants have died)
In short: as §1

[6] = system: DIGSA; assay: Post-emergence action against DIGSA, 1.28 kg/ha; type: in vivo, Digitaria sanguinalis; conditions: dosage 1280 g/ha, visual rating about 3 weeks after treatment vs untreated controls
In short: (§3)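 Greenhouse-grown weeds (sandy loam, twin-sown pots) were treated 2–3 weeks post-sowing at one leaf. The spray was an aqueous WP/EC preparation plus 0.5% additive, applied at 600 L/ha. Scoring was visual at ~3 weeks, 0–100% versus untreated controls.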

[7] = system: VIOTR; assay: Post-emergence action at 320 g/ha against VIOTR; type: in vivo, Viola tricolor; conditions: visual rating about 3 weeks after treatment vs untreated controls; for pest or weed control at 320 g/ha: Viola tricolor, 504 h
In short: as §2

[8] = system: VIOTR; assay: Pre-emergence action at 320 g/ha against VIOTR; type: in vivo, Viola tricolor; conditions: dosage 320 g/ha; for pest or weed control at 320 g/ha: Viola tricolor, 504 h
In short: (§4)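 Compounds were sprayed onto soil over sown seeds as emulsions or suspensions with 0.5% additive at a water rate of 600 l/ha. After about 3 weeks in the greenhouse, effect was rated visually as percent (100% = died).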

[9] = system: PHBPU; assay: Pre-emergence action at 320 g/ha against PHBPU; type: in vivo; conditions: visual scoring after about 3 weeks vs untreated controls
In short: as §4

[10] = system: ABUTH; assay: Pre-emergence action against ABUTH, 1280 g/ha; type: in vivo, Abutilon theophrasti; conditions: scored visually after about 3 weeks vs untreated controls (100% = plants have died)
In short: as §1

[11] = system: VERPE; assay: Pre-emergence action at 320 g/ha against VERPE; type: in vivo, Veronica persica; conditions: visual scoring after about 3 weeks vs untreated controls; for pest or weed control at 320 g/ha: Veronica persica, 504 h
In short: as §4

[12] = system: KCHSC; assay: Post-emergence action against KCHSC, 1.28 kg/ha; type: in vivo, Bassia scoparia; conditions: dosage 1280 g/ha, visual rating about 3 weeks after treatment vs untreated controls (100% = plants died)
In short: as §3

[13] = system: ECHGC; assay: Pre-emergence action at 320 g/ha against ECHGC; type: in vivo, Echinochloa crus-galli; conditions: visual scoring after about 3 weeks vs untreated controls
In short: as §4

[14] = system: ABUTH; assay: Pre-emergence action at 320 g/ha against ABUTH; type: in vivo, Abutilon theophrasti; conditions: greenhouse, scored visually after about 3 weeks vs untreated controls, 100% = plants have died, 0% = like control plants
In short: as §4

[15] = system: STEME; assay: Pre-emergence action at 320 g/ha against STEME; type: in vivo, Stellaria media; conditions: greenhouse, scored visually after about 3 weeks vs untreated controls, 100% = plants have died, 0% = like control plants
Text: b) Seeds of monocotyledonous and dicotyledonous weed plants and crop plants are placed in plastic or organic planting pots and covered with soil. The compounds of the invention, formulated in the form of wettable powders (WP) or as emulsion concentrates (EC), are then applied onto the surface of the covering soil as aqueous suspension or emulsion with addition of 0.5% additive at a water application rate of 600 l/ha (converted). After the treatment, the pots are placed in a greenhouse and kept under good growth conditions for the trial plants. After about 3 weeks, the effect of the preparations is scored visually in comparison with untreated controls as percentages. For example, 100% activity=the plants have died, 0% activity=like control plants. Tables 13 to 26 below show the effects of selected compounds of the general formula (I) on various harmful plants and at an application rate corresponding to 320 g/ha, which were obtained by the experimental procedure mentioned above.

[16] = system: HORMU; assay: Post-emergence action at 320 g/ha against HORMU; type: in vivo, Hordeum murinum; conditions: visual rating about 3 weeks after treatment vs untreated controls
Text: Accordingly, the compounds of the invention have good herbicidal action against a broad spectrum of weed grasses and broad-leaved weeds and are therefore suitable for controlling unwanted vegetation by the post-emergence method. • b) Seeds of monocotyledonous and dicotyledonous weeds and crop plants are placed in sandy loam in plastic or organic planting pots, covered with soil and cultivated in a greenhouse under controlled growth conditions. 2 to 3 weeks after sowing, the test plants are treated at the one-leaf stage. The compounds of the invention, formulated in the form of wettable powders (WP) or as emulsion concentrates (EC), are then sprayed onto the green parts of the plants as aqueous suspension or emulsion with addition of 0.5% additive at a water application rate of 600 l/ha (converted). After the test plants have been kept in the greenhouse under optimum growth conditions for about 3 weeks, the activity of the preparations is rated visually in comparison to untreated controls. For example, 100% activity=the plants have died, 0% activity=like control plants. Tables 39 to 49 below show the effects of selected compounds of the general formula (I) according to Tables 1 and 2 on various harmful plants and at an application rate corresponding to 320 g/ha, which were obtained by the experimental procedure mentioned above.

[17] = system: ECHCG; assay: Post-emergence action at 320 g/ha against ECHCG; type: in vivo, Echinochloa crus-galli; conditions: dosage 320 g/ha, visual rating about 3 weeks after treatment vs untreated controls (100% = plants died)
In short: as §2

SMILES	pest or weed control at 1280 g/ha [1]	Pre-emergence action against ALOMY [2]	pest or weed control at 320 g/ha [3]	Post-emergence action against ABUTH in % [4]	Pre-emergence action against KCHSC [5]	Post-emergence action against DIGSA [6]	pest or weed control at 320 g/ha [7]	pest or weed control at 320 g/ha [8]	Pre-emergence action against PHBPU in % [9]	Pre-emergence action against ABUTH [10]	Post-emergence action against KCHSC [12]	Pre-emergence action against ECHGC in % [13]	Pre-emergence action at 320 g/ha against ABUTH in % [14]	Pre-emergence action against LOLRI [1]	Post-emergence action against AVEFA in % [3]	Post-emergence action against VIOTR in % [7]	Pre-emergence action against VIOTR in % [8]	Pre-emergence action against VERPE in % [11]	Pre-emergence action at 320 g/ha against STEME in % [15]	Post-emergence action at 320 g/ha against ECHCG in % [17]	other results
COC(=O)[C@@H](C)Oc1nn(-c2ccccc2F)c(-c2cncnc2)c1Br [VI-011, Methyl (2R)-2-{[4-bromo-1-(2-fluorophenyl)-5-(pyrimidin-5-yl)-1H-pyrazol-3-yl]oxy}propanoate]	100%	90%	90%	90%	100%	100%	90%	100%	90%	90%	90%	80%	80%								pest or weed control at 320 g/ha [11]: 90%
C[C@@H](Oc1nn(-c2ccccc2F)c(-c2cncnc2)c1Br)C(=O)O [VI-012]		90%		80%	100%	90%			90%	90%	90%	80%	80%	100%	90%	100%	100%	100%			
COC(=O)[C@@H](C)Oc1nn(-c2ccccc2)c(-c2cncnc2)c1Br [VI-013]		90%		80%	100%	90%				90%	100%	90%	80%	100%	80%	90%	100%				
COC(=O)COc1nn(-c2ccc(F)cc2)c(-c2ccc(F)nc2)c1Br [VII-002]				80%								90%		100%	100%	90%		100%	90%	90%	Post-emergence action against HORMU in % [16]: 90%
COC(=O)[C@@H](C)Oc1nn(-c2ccccc2)c(-c2cccnc2)c1Br [VII-008]		100%		90%	90%				80%	90%	90%	80%	80%	100%	90%	90%	100%	100%		90%	
CCOC(=O)COc1nn(-c2ccccc2F)c(-c2cncc(F)c2)c1Br [VII-015]		90%		90%		100%			90%	90%		90%	80%	100%	90%	90%	100%	100%		90%	
COC(=O)C(C)Oc1nn(-c2ccccc2)c(-c2ccc(F)nc2)c1Cl (stereo not shown) [VII-023, Methyl 2-{[4-chloro-5-(6-fluoropyridin-3-yl)-1-phenyl-1H-pyrazol-3-yl]oxy}propanoate]	100%		80%	90%		90%	80%	100%				90%							90%	80%	Post-emergence action against HORMU in % [16]: 90%; pest or weed control at 320 g/ha [11]: 80%
COC(=O)COc1nn(-c2ccccc2F)c(-c2cncc(F)c2)c1Br [VII-035]		100%		90%	90%	100%			90%	90%		90%	90%	100%	90%	90%	100%	100%		90%	
CCOC(=O)COc1nn(-c2ccccc2F)c(-c2ccnc(F)c2)c1Br [VIII-003, Ethyl {[4-bromo-1-(2-fluorophenyl)-5-(2-fluoropyridin-4-yl)-1H-pyrazol-3-yl]oxy}acetate]	90%		90%				80%	100%				90%							80%	80%	pest or weed control at 320 g/ha [11]: 90%
O=C(O)COc1nn(-c2ccccc2F)c(-c2ccnc(F)c2)c1Br [VIII-004]												90%		100%	100%	90%	90%	100%	90%	90%	Post-emergence action against HORMU in % [16]: 90%
